According to patent publication US7524851B2 (Robert Bosch Gesellschaft fur Medizinische Forschung (RBMF), priority 2003, dated 2009):
Each block holds one molecule with its values, some of them ahead of it.

Columns and labels:
Rac1 = Rac1 activation assay (GTP-bound Rac1, PAK pull-down); assay type: cell-based, human; conditions: primary T cells, 3 days
Experimental: (§1) Cell lysates were incubated with 10 μg/ml PAK-1 agarose (Rac assays) or 10 μg/mg Raf RBD agarose (Ras assay) for 60 minutes (Rac assays) or 30 minutes (Ras assays) at 4° C. Agarose beads were collected by centrifugation followed by denaturation, boiling of the samples, and SDS-PAGE analysis.

[1] = system: primary CD4+ T lymphocytes; experiment: Annexin V/propidium iodide FACS apoptosis of stimulated primary blood CD4+ T lymphocytes; assay type: cell-based, human; conditions: anti-CD3, anti-CD28, rIL-2; 4-5 days; at least comparable to 6-MP
Source text: Isolation of primary CD4^+ T lymphocytes and lamina propria cells: Human peripheral blood mononuclear cells (PBMCs) from healthy volunteers (25-42 years of age) and patients with Crohn's disease (31-65 years of age) were isolated using Ficoll-Hypaque gradients. PBMCs were further purified using CD4 monoclonal antibodies attached to immunomagnetic beads according to the manufacturer's protocol, followed by treatment with Detachabead (Dynal; Oslo, Norway). In some cases, CD4^+ T cells were further separated by negative selection techniques using CD45RO or CD45RA monoclonal antibodies (PharMingen; Heidelberg, Germany) and immunomagnetic beads (Dynal). […] Lamina propria mononuclear cells (LPMCs) from patients with IBD were isolated from gut specimens using a short-term (5-minute) digestion protocol with collagenase V, hyaluronidase (Sigma-Aldrich; St. Louis, Mo., USA), and DNase (Roche; Mannheim, Germany), as recently described in detail in Holtmann et al., Eur. J. Immunol. 32:3142-3151 (2002). Briefly, specimens were washed in calcium- and magnesium-free HBSS (HBSS-CMF), cut into 0.5-cm pieces, and incubated twice in HBSS containing EDTA (0.37 mg/ml) and DTT (0.145 mg/ml) at 37° C. for 15 minutes, followed by subsequent digestion for 5 minutes with collagenase V 400 (1 mg/ml), deoxyribonuclease (0.1 mg/ml DNase), and hyaloronidase (0.1 mg/ml) in a shaking incubator at 37° C. The digested tissue was washed twice in RPMI medium containing 10% FCS and centrifuged. The tissue was finally mechanically homogenized (DAKO homogenizer; Hamburg, Germany) for 4 minutes, and cells were filtered through a sterile 40-μm cell strainer (Falcon; San Diego, Calif., USA).
Such CD28 costimulation is known to prevent apoptosis of primary T cells during T cell receptor (TCR) stimulation through activation of bcl-x, and NF-κB (Noel et al., J. Immunol. 157:636-647 (1996); Radvanyi et al., J. Immunol. 156:1788-1798 (1996); Khoshnan et al., J. Immunol. 165:1743-1754 (2000)). […] In addition, recombinant IL-2 (R&D Systems; Wiesbaden, Germany) was used at a final concentration of 40 U/ml in all experiments. Lamina propria T lymphocytes were stimulated with antibodies to CD2 (4 μg/ml; Immunotech; Marseille, France) and CD28 (1 μg/ml). […] To block CD95L-mediated (FasL-mediated) apoptosis, the NOK-1 antibody (4 μg/ml, PharMingen) was used whose Fab fragments bind to human CD95L (FasL) (Jodo et al., J. Immunol. 165:5487-5494 (2000)). Recombinant human FasL (Alexis Biochemicals; Heidelberg, Germany) was used as a positive control for the NOK-1 antibody (10 μg/ml).
For FACS analysis, apoptotic cells were detected by staining with annexin V and propidium iodide using the Annexin V FITC Apoptosis Detection Kit I (PharMingen) (Atreya et al., Nat. Med. 6:583-588 (2000)). In brief, T cells were washed twice in PBS, and the pellet was resuspended in annexin V binding buffer (PharMingen) at a concentration of 10^6 cells per milliliter. Annexin V FITC and propidium iodide were added (5 ill of each per 10^5 cells). Samples were gently mixed and incubated for 15 minutes at room temperature in the dark before FACS analysis. To verify the results obtained with the annexin V/propidium iodide staining, analysis of T cells displaying DNA fragmentation was also determined by the Nicoletti technique, as described in (Nicoletti et al., J. Immunol. Methods 139:271-279 (1991)). 10^6 T cells were fixed in 70% ethanol, washed once in HBSS, resuspended in 1 ml of HBSS and 1 ml of phosphate citric acid buffer (0.2 mol/l Na2PO4 and 0.004 mol/l citric acid [pH 7.8]), and incubated at room temperature for 5 minutes. After centrifugation, cells were resuspended in 1 ml of HBSS containing 20 μg/ml propidium iodide and 10 U DNase-free RNase A and incubated at room temperature for 30 minutes. Finally, cells were analyzed on a FACScan flow cytometer. Because of the fragmentation of DNA, apoptotic cells appear as hypodiploid in the DNA histogram.

Ras = Ras activation assay (GTP-bound Ras, Raf RBD pull-down); assay type: cell-based, human; conditions: primary T cells
Experimental: as §1

[2] = system: primary CD4+ T lymphocytes; experiment: Mitochondrial membrane potential (JC-1, FACS); conditions: positive control, 50 μM for 18 hours
[3] = Interconversion of TGDP and TGTP in spiked blank RBC during sample work-up; assay type: in vitro ADME, human
[4] = as above; assay type: in vitro ADME, human; remark: listed apart in the source
Experimental: Calibration samples and controls were prepared as described in Rabel et al., supra, with minor modifications. Known amounts of 6-thioguanosine phosphates were added to a mixture of EDTA and 10 μl of DTT to give a final volume of 150 μl. Finally, 100 μl of blank RBC were added and the mixture thoroughly homogenized by vortex mixing. Sample preparation was performed as described above. Calibration curves covered the range of 10 to 50 pmol for TGMP, 10 to 100 pmol for TGDP, and 20 to 400 pmol for TGTP per sample referred to 100 μl of packed blank RBC. Standard curves were obtained by linear regression using peak areas versus concentrations. Because of the partial conversion of TGDP to TGTP and vice versa, both peak areas were summed up. In addition, combinations of 5 to 20 percent of TGDP per sum of TGDP and TGTP were prepared.
The percentage of conversion of TGDP to TGTP and of TGTP to TGDP was assessed using three sets of TGDP and TGTP calibrators prepared with different RBC.

[5] = Stability of thioguanosine phosphates in patient blood samples; assay type: in vitro ADME, human
Experimental: Stability of the thioguanosine phosphates in blood samples was examined by storing blood samples from patients for up to 5 days at ambient temperature. RBC were isolated after the specified storage time and frozen at −80° C. until analysis.

[6] = Stability of thioguanosine phosphates in extracted samples; assay type: physicochemical
Source text: Stability of thioguanosine phosphates in extracted samples was investigated by storage of extracted samples from 12 patients before oxidation and after oxidation for 14 days and comparing the results with the same samples analyzed immediately after oxidation.

[7] = Stability during storage of RBC at −80° C.; assay type: in vitro ADME, human
Experimental: Stability during storage of RBC at −80° C. was investigated in samples from 18 patients. RBC which were analyzed within one week after isolation were compared with RBC stored for up to 14 weeks.

Recombinant Rac1 = Recombinant Rac1 (Homo sapiens, UniProt P63000); experiment: Competition of [3H]GTP binding to recombinant Rac1; conditions: 0-500 μM, PAK pull-down, scintillation counting
Experimental: (§2) Rac and Ras activation assays: The levels of Rac1- and Ras-bound GTP were determined by immunoblot techniques (Upstate Biotech; London, United Kindom). […] Cell lysates were incubated with 10 μg/ml PAK-1 agarose (Rac assays) or 10 μg/mg Raf RBD agarose (Ras assay) for 60 minutes (Rac assays) or 30 minutes (Ras assays) at 4° C. Agarose beads were collected by centrifugation followed by denaturation, boiling of the samples, and SDS-PAGE analysis. Proteins were transferred to nitrocellulose membranes and incubated with 1 μg/ml murine anti-human Rac1 or anti-human Ras (clone Ras10) antibodies overnight at 4° C., followed by detection with goat anti-mouse HRP-conjugated IgG (1:1000 dilution) and the ECL detection system. To analyze the capacity of TGTP to bind to Rac1 or Ras, chemically synthesized TGTP (obtained from Jena Bioscience, Jena, Germany) was used. Recombinant Rac1 or Ras was incubated with radiolabeled GTP ([^3H]GTP, Amersham) and increasing amounts of TGTP (0-500 μM) followed by Rac1 and Ras pull-down through PAK and Raf RGD and analysis of [^3H]GTP-bound Rac1 or Ras by scintillation counting.

Recombinant Ras = experiment: Competition of [3H]GTP binding to recombinant Ras; conditions: 0-500 μM, Raf RGD pull-down, scintillation counting
Experimental: as §2

[8] = system: primary CD4+ T lymphocytes; experiment: Blocking of caspase-8 and caspase-9 activity in 6-MP-induced apoptosis; assay type: cell-based, human; conditions: 10 μM inhibitor; FACS after 5 days
Experimental: Blocking of caspase-8 and caspase-9 activity: Primary CD4^+ T lymphocytes from peripheral blood were isolated as described above and stimulated with antibodies to CD3 and CD28 in the presence or absence of indicated amounts of N-acetyl-Leu-Glu-His-Asp-aldehyde (Biomol), a reversible inhibitor of caspase-9, or Ac-Ile-Glu-Thr-Asp-aldehyde (Bachem; Heidelberg, Germany), an inhibitor of caspase-8. Apoptosis was determined by FACS analysis after 5 days of cell culture.

[9] = more than 10 different blank RBC
[10] = 5 days of storage of blood at ambient temperature

Molecule: Nc1nc2nc[nH]c2c(=S)[nH]1 [6-TG, 6-thioguanine]
CD28 costimulation induced Rac1 activation (GTP-bound Rac1) (Rac1): strongly suppressed
apoptosis of primary blood CD4+ T lymphocytes [1]: marked apoptosis
activation of Ras (GTP-bound Ras) (Ras): fail to modulate

Molecule: N#CC(C#N)=NNc1ccc(OC(F)(F)F)cc1 [FCCP, carbonylcyanide-4-(trifluoromethoxy)-phenylhydrazone]
ΔΨm in primary CD4+ T cells [2]: marked reduction of ΔΨm

Area % of calibrator added, area calibrator × 100/(area TGTP + area TGDP), mean (n = 6) ([3]; 0.9% NaCl): 100.0%
conversion of TGDP ([3]; 0.9% NaCl): did not show any conversion
conversion of TGDP to TGTP [3, 9]: 6-15%
Area % of calibrator added, area calibrator × 100/(area TGTP + area TGDP), mean (n = 6) ([4]; spiked RBC 1): 91.6%
Area % of calibrator added, area calibrator × 100/(area TGTP + area TGDP), mean (n = 6) ([4]; spiked RBC 2): 92.6%
Area % of calibrator added, area calibrator × 100/(area TGTP + area TGDP), mean (n = 6) ([4]; spiked RBC 3): 92.8%
conversion of TGDP to TGTP ([4]; spiked samples from three healthy volunteers): 7-8%
change of amount of TGDP ([5]; up to 5 days of storage of blood at ambient temperature): did not change significantly
Molecule: Nc1nc2c(ncn2[C@@H]2O[C@H](COP(=O)(O)OP(=O)(O)O)[C@@H](O)[C@H]2O)c(=S)[nH]1 [TGDP, 6-thioguanosine diphosphate]

amount of TGMP as share of total thioguanosine phosphates [5, 10]: more than 70%
Molecule: Nc1nc2c(ncn2[C@@H]2O[C@H](COP(=O)(O)O)[C@@H](O)[C@H]2O)c(=S)[nH]1 [TGMP, 6-thioguanosine monophosphate]

reduction of the proportion of TGTP ([6]; non-oxidized extracts kept 14 days at ambient temperature before oxidation, average (range from −5 to −12%)): 7%
decrease of TGTP proportion ([6]; oxidized samples stored for 14 days (range from −6 to −13%)): approximately 8%
decrease of the proportion of TGTP ([7]; RBC from 18 patients at −80° C. for 8 to 14 weeks, thawed twice): 7.6±7.6%
effect of repeated thawing and freezing of RBC samples ([7]; dephosphorylation of TGTP to TGDP): progression in dephosphorylation
Area % of calibrator added, area calibrator × 100/(area TGTP + area TGDP), mean (n = 6) ([3]; 0.9% NaCl): 95.6%
conversion of TGTP to TGDP [3, 9]: 6-20%
TGDP found after sample work-up ([3]; saline samples spiked with TGTP): about 5%
Area % of calibrator added, area calibrator × 100/(area TGTP + area TGDP), mean (n = 6) ([4]; spiked RBC 1): 90.3%
Area % of calibrator added, area calibrator × 100/(area TGTP + area TGDP), mean (n = 6) ([4]; spiked RBC 2): 93.9%
Area % of calibrator added, area calibrator × 100/(area TGTP + area TGDP), mean (n = 6) ([4]; spiked RBC 3): 82.2%
conversion of TGTP to TGDP ([4]; subject 1): 9.7%
conversion of TGTP to TGDP ([4]; subject 2): 6.1%
conversion of TGTP to TGDP ([4]; third sample): ~18%
TGTP recovered [5, 10]: about 5%
change of TGTP on storage of blood samples ([5]; one day at ambient temperature): marked decrease
binding to recombinant Rac1 / suppression of [3H]GTP-bound Rac1 (Recombinant Rac1; listed as 6-Thio-GTP): concentration-dependent suppression
competition with GTP for recombinant Ras / [3H]GTP-bound Ras (Recombinant Ras): did not significantly compete
competition with GTP for recombinant Ras / [3H]GTP-bound Ras (Recombinant Ras; listed as 6-Thio-GTP): little effect
Molecule: Nc1nc2c(ncn2[C@@H]2O[C@H](COP(=O)(O)OP(=O)(O)OP(=O)(O)O)[C@@H](O)[C@H]2O)c(=S)[nH]1 [TGTP, 6-thioguanosine triphosphate]
binding to recombinant Rac1 / suppression of [3H]GTP-bound Rac1 (Recombinant Rac1): able to bind to recombinant Rac1 under in vitro conditions (although with lower affinity than GTP)

Molecule: Ac-IETD-aldehyde [acetyl-IETD-CHO]
effect on 6-MP-induced apoptosis of primary T lymphocytes [8]: lesser effects

Molecule: N-acetyl-Leu-Glu-His-Asp-aldehyde (Ac-LEHD-aldehyde; SMILES CC(=O)N[C@@H](CC(C)C)C(=O)N[C@@H](CCC(=O)O)C(=O)N[C@@H](Cc1c[nH]cn1)C(=O)N[C@H](C=O)CC(=O)O) [acetyl-LEHD-CHO]
effect on 6-MP-induced apoptosis of primary T lymphocytes [8]: suppressed 6-MP-induced apoptosis
